SMILES strings stand for the structures.

For assay [1], the target named is human dopamine D2 receptor (hD2R) (Homo sapiens, UniProt P14416). In words: Human D2 receptor binding assay ([^3H]-Spiperone). The following applies: CHO cells expressing hD2R, geometric mean of 2-5 determinations unless marked b (single determination). The procedure: (§1) Human D2 Receptor and Human D3 Receptor Binding Assays:
(§2) These determined ligand and tissue concentrations were utilized in time course studies to determine linearity and equilibrium conditions for binding. […] The hD2R assay buffer contains 50 mM Tris (pH 7.4 @ 37° C.), 100 mM NaCl and 1 mM MgCl2. The hD3R assay buffer consists of 50 mM Tris (pH 7.4 at 37° C.), 120 mM NaCl, 5 mM MgCl2, 5 mM KCl and 2 mM CaCl2. Competitive binding experiments were initiated by the addition of 200 μL of the respective cell homogenate to 96-well plates containing […] test drugs (10 concentrations using ½ log dilutions) and 50 μL of ^3H-radioligand for a final volume of 250 μL. Non-specific binding was determined by radioligand binding in the presence of a saturating concentration of Haldol (10 μM). After the 20 minute incubation at 37° C., assay samples were rapidly filtered through Unifilter-96 GF/B PEI-coated filter plates and rinsed with ice-cold 50 mM Tris buffer (pH 7.4 at 4° C.). […] The IC50 value (concentration at which 50% inhibition of specific binding occurs) was calculated by linear regression of the concentration-response data in ActivityBase. Ki values were then calculated according to the Cheng-Prusoff equation:
(§3) [formula] where [L]=concentration of free radioligand and Kd=dissociation constant of radioligand for D3 receptor or D2 receptor.

In assay [2] the target is human dopamine D3 receptor (hD3R) (Homo sapiens, UniProt P35462). Kind of assay: Human D3 receptor binding assay ([^3H]-7-OH-DPAT). The following applies: CHO cells expressing hD3R, geometric mean of 2-5 determinations unless marked b (single determination), read-out: hD3 in CHO cells Ki. The procedure: as §1, §2, §3
Sequence of human dopamine D3 receptor (hD3R) (P35462 whole entry): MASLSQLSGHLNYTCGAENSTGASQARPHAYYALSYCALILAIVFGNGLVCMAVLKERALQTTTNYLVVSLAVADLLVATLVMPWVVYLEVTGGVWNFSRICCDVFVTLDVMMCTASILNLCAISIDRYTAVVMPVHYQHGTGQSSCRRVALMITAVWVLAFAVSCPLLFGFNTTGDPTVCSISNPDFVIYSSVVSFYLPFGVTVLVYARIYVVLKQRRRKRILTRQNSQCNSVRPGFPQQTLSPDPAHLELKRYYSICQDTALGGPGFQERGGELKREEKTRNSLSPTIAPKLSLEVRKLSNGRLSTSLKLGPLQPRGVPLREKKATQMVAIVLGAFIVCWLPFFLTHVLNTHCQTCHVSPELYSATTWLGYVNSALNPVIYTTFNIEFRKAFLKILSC

Sequence of human dopamine D2 receptor (hD2R) (P14416 whole entry): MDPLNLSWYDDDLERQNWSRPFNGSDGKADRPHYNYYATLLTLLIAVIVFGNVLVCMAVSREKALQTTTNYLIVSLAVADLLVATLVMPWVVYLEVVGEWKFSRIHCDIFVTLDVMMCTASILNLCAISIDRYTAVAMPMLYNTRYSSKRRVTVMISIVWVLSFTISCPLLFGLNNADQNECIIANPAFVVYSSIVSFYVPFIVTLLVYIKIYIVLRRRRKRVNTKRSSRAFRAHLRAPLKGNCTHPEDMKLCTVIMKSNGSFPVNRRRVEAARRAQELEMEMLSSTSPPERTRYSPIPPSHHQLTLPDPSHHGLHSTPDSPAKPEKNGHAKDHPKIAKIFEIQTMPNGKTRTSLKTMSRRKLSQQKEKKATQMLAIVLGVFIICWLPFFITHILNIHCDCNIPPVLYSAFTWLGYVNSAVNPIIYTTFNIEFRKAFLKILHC

With `COc1nc2c(cc1NS(=O)(=O)c1ccc(C3CC(F)(F)CCO3)cc1)CCN(C)CC2` (racemic) [Example 40, 4-(4,4-difluorotetrahydro-2H-pyran-2-yl)-N-(2-methoxy-7-methyl-6,7,8,9-tetrahydro-5H-pyrido[2,3-d]azepin-3-yl)benzenesulfonamide], the inhibition constant (Ki) (as a rule, a dissociation constant, usually derived from enzyme kinetics or from competition with a known ligand) in assay [1] came to 134 nM; in assay [2] it was 2.59 nM. For `CCN1CCc2cc(NS(=O)(=O)c3ccc(C4CCCCO4)cc3)c(OC)nc2CC1` (racemic) [Example 70, N-(7-ethyl-2-methoxy-6,7,8,9-tetrahydro-5H-pyrido[2,3-d]azepin-3-yl)-4-(tetrahydro-2H-pyran-2-yl)benzenesulfonamide], in that order: 294 nM and 2 nM. For `COc1nc2c(cc1NS(=O)(=O)c1ccc(C3CCCOC3)cc1)CCN(C)CC2` (racemic) [Example 77, N-(2-methoxy-7-methyl-6,7,8,9-tetrahydro-5H-pyrido[2,3-d]azepin-3-yl)-4-(tetrahydro-2H-pyran-3-yl)benzenesulfonamide], in that order: 549 nM and 4.52 nM.

In the case of `COc1nc2c(cc1NS(=O)(=O)c1ccc(C3(F)CCC(OC)CC3)cc1)CCN(C)CC2` (single isomer, unassigned) [Example 39, 4-(cis-1-fluoro-4-methoxycyclohexyl)-N-(2-methoxy-7-methyl-6,7,8,9-tetrahydro-5H-pyrido[2,3-d]azepin-3-yl)benzenesulfonamide], the Ki in assay [1] came out at 561 nM; in assay [2] it was 1.95 nM. Turning to `COc1nc2c(cc1NS(=O)(=O)c1ccc(C3CC(F)(F)CCO3)cc1)CCN(C)CC2` (single isomer, unassigned) [Example 41], the results for the inhibitory constant (Ki) in assay [1] and in assay [2] were 177 nM and 2.31 nM, respectively. Consider `COc1nc2c(cc1NS(=O)(=O)c1ccc(C3CC(F)(F)CCO3)cc1)CCN(C)CC2` (single isomer, unassigned) [Example 42], for which the Ki in assay [1] was 402 nM; in assay [2] it was 5.91 nM. On to `CCN1CCc2cc(NS(=O)(=O)c3ccc(C4CCCCO4)cc3)c(OC)nc2CC1` (single isomer, unassigned) [Example 73], for which the inhibition constant Ki in assay [1] was 1040 nM; in assay [2] it was 4.41 nM.

`CCN1CCc2cc(NS(=O)(=O)c3ccc(C4CCCCO4)cc3)c(OC)nc2CC1` (single isomer, unassigned) [Example 74]: the values for the Ki in assay [1] and in assay [2] were 202 nM and 2.58 nM, respectively. For `COc1nc2c(cc1NS(=O)(=O)c1ccc(C3CCCOC3)cc1)CCN(C)CC2` (single isomer, unassigned) [Example 83], in that order: 436 nM and 4.69 nM.

Regarding `COc1nc2c(cc1NS(=O)(=O)c1ccc(C3CCCOC3)cc1)CCN(C)CC2` (single isomer, unassigned) [Example 84], the inhibition constant (Ki) in assay [1] came to 503 nM; in assay [2], 4.58 nM. For `COc1nc2c(cc1NS(=O)(=O)c1ccc(C3CCOC(C)C3)cc1)CCN(C)CC2` (single isomer, unassigned) [Example 85], in that order: 303 nM and 3.24 nM.

Turning to `COc1nc2c(cc1NS(=O)(=O)c1ccc(C3CCOC(C)(C)C3)cc1)CCN(C)CC2` (single isomer, unassigned) [Example 86], the Ki in assay [1] was found to be 1390 nM; in assay [2] it was 35.2 nM.

With `COc1nc2c(cc1NS(=O)(=O)c1ccc(C3CCOC(C)(C)C3)cc1)CCN(C)CC2` (single isomer, unassigned) [Example 87], the Ki in assay [1] was determined as 276 nM; in assay [2], 3.61 nM.

`COc1nc2c(cc1NS(=O)(=O)c1ccc(C3CCOC(C)C3)cc1)CCN(C)CC2` (single isomer, unassigned) [Example 88]: the inhibition constant (Ki) in assay [1] amounted to 651 nM; in assay [2], 6.84 nM. For `COc1nc2c(cc1NS(=O)(=O)c1ccc(C3(F)CCC(OC)CC3)cc1)CCN(C)CC2` (single isomer, unassigned) [Example 93, 4-(trans-1-fluoro-4-methoxycyclohexyl)-N-(2-methoxy-7-methyl-6,7,8,9-tetrahydro-5H-pyrido[2,3-d]azepin-3-yl)benzenesulfonamide], in that order: 366 nM and 2.03 nM. On to `CCN1CCc2cc(NS(=O)(=O)c3ccc(C4(F)CCC(OC)CC4)cc3)c(OC)nc2CC1` (single isomer, unassigned) [Example 94, N-(7-ethyl-2-methoxy-6,7,8,9-tetrahydro-5H-pyrido[2,3-d]azepin-3-yl)-4-(1-fluoro-4-methoxycyclohexyl)benzenesulfonamide], for which the Ki was found to be 727 nM in assay [1] and 2.71 nM in assay [2]. In the case of `COc1nc2c(cc1NS(=O)(=O)c1ccc(C3CC(F)CCO3)cc1)CCN(C)CC2` (single isomer, unassigned) [Example 106, 4-(4-fluorotetrahydro-2H-pyran-2-yl)-N-(2-methoxy-7-methyl-6,7,8,9-tetrahydro-5H-pyrido[2,3-d]azepin-3-yl)benzenesulfonamide], the Ki in assay [1] worked out at 320 nM; in assay [2] it was 4.31 nM. For `COc1nc2c(cc1NS(=O)(=O)c1ccc(C3CC(F)CCO3)cc1)CCN(C)CC2` (single isomer, unassigned; diastereomer-1) [Example 108, 4-(4-fluorotetrahydro-2H-pyran-2-yl)-N-(2-methoxy-7-methyl-6,7,8,9-tetrahydro-5H-pyrido[2,3-d]azepin-3-yl)benzenesulfonamide, diastereomer-1], in that order: 1930 nM and 15.1 nM. For `COc1nc2c(cc1NS(=O)(=O)c1ccc(C3CC(F)CCO3)cc1)CCN(C)CC2` (single isomer, unassigned; diastereomer-2) [Example 109, 4-(4-fluorotetrahydro-2H-pyran-2-yl)-N-(2-methoxy-7-methyl-6,7,8,9-tetrahydro-5H-pyrido[2,3-d]azepin-3-yl)benzenesulfonamide, diastereomer-2], in that order: 208 nM and 3.16 nM. For `COc1nc2c(cc1NS(=O)(=O)c1ccc(C3CCCCC3)nc1)CCN(C)CC2` [Example 1, 6-Cyclohexyl-N-(2-methoxy-7-methyl-6,7,8,9-tetrahydro-5H-pyrido[2,3-d]azepin-3-yl)pyridine-3-sulfonamide], in that order: 38.8 nM and 1.75 nM. Regarding `CCN1CCc2cc(NS(=O)(=O)c3ccc(OC4CCCC4)nc3)c(OC)nc2CC1` [Example 2, 6-(Cyclopentyloxy)-N-(7-ethyl-2-methoxy-6,7,8,9-tetrahydro-5H-pyrido[2,3-d]azepin-3-yl)pyridine-3-sulfonamide], the Ki in assay [1] was 76 nM; in assay [2] it was 0.859 nM. In the case of `COc1nc2c(cc1NS(=O)(=O)c1ccc([C@H]3C[C@H](OCCF)C3)cc1)CCN(C)CC2` [Example 3, 4-[trans-3-(2-Fluoroethoxy)cyclobutyl]-N-(2-methoxy-7-methyl-6,7,8,9-tetrahydro-5H-pyrido[2,3-d]azepin-3-yl)benzenesulfonamide], the inhibition constant Ki is 85.9 nM in assay [1] and 1.56 nM in assay [2]. For `COc1nc2c(cc1NS(=O)(=O)c1ccc(C3CCOCC3)cc1)CCN(C)CC2` [Example 4, N-(2-Methoxy-7-methyl-6,7,8,9-tetrahydro-5H-pyrido[2,3-d]azepin-3-yl)-4-(tetrahydro-2H-pyran-4-yl)benzenesulfonamide], in that order: 104 nM and 1.53 nM. With `COc1nc2c(cc1NS(=O)(=O)c1ccc(C)cc1)CCN(C)CC2` [Example 5, N-(2-Methoxy-7-methyl-6,7,8,9-tetrahydro-5H-pyrido[2,3-d]azepin-3-yl)-4-methylbenzenesulfonamide], the results for the Ki in assay [1] and in assay [2] were 333 nM and 3.72 nM, respectively. For `COc1nc2c(cc1NS(=O)(=O)c1ccc(C3CCCCO3)cc1)CCN(C)CC2` (stereo not shown) [Example 6, N-(2-Methoxy-7-methyl-6,7,8,9-tetrahydro-5H-pyrido[2,3-d]azepin-3-yl)-4-(tetrahydro-2H-pyran-2-yl)benzenesulfonamide], in that order: 54.6 nM and 0.866 nM. For `COc1nc2c(cc1NS(=O)(=O)c1ccc([C@H]3CCCCO3)cc1)CCN(C)CC2` [Example 7, N-(2-Methoxy-7-methyl-6,7,8,9-tetrahydro-5H-pyrido[2,3-d]azepin-3-yl)-4-[(2R)-tetrahydro-2H-pyran-2-yl]benzenesulfonamide], in that order: 65.5 nM and 1.39 nM. Consider `COc1nc2c(cc1NS(=O)(=O)c1ccc([C@@H]3CCCCO3)cc1)CCN(C)CC2` [Example 8, N-(2-Methoxy-7-methyl-6,7,8,9-tetrahydro-5H-pyrido[2,3-d]azepin-3-yl)-4-[(2S)-tetrahydro-2H-pyran-2-yl]benzenesulfonamide], for which the inhibition constant (Ki) in assay [1] is 180 nM; in assay [2] it was 2.09 nM. Consider `COc1nc2c(cc1NS(=O)(=O)c1ccc(C3COC3)cc1)CCN(C)CC2` [Example 33, N-(2-methoxy-7-methyl-6,7,8,9-tetrahydro-5H-pyrido[2,3-d]azepin-3-yl)-4-(oxetan-3-yl)benzenesulfonamide], for which the inhibition constant (Ki) in assay [2] was 3.68 nM.

For the origin of these results see patent US10590128B2, “6,7,8,9-tetrahydro-5H-pyrido[2,3-d]azepine dopamine D3 ligands” (Pfizer Inc., priority 2016, dated 2020).
